Experiment [1] has as its system U937 (human leukemia cells). The experiment can be described thus: MTT cancer cell growth inhibition. The conditions noted are these: U-937, 72 h. The experiment is classed as cell-based. The essentials: (§1)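 1500 cells/well, DMEM or 1640 + 10% FBS, overnight 37 °C/5% CO2; cpd 10^−5–10^−10 M final, triplicate, 72 h; 0.1% DMSO vehicle; MTT 4 h; DMSO solubilisation; A570; % survival.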

For experiment [2], the system named is PANC-1. Kind of experiment: MTT cancer cell growth inhibition. The experiment is classed as cell-based. The note with it: Homo sapiens, 72 h. The procedure, abridged:
as §1

Experiment [3] relates to MCF-7 (human breast cancer cells). The experiment can be described thus: MTT cancer cell growth inhibition. The experiment is classed as cell-based. The conditions noted are these: MCF7, 72 h. The procedure, abridged: as §1
In experiment [4] the test system is Hela (human cervical cancer cells). Kind of experiment: MTT cancer cell growth inhibition. The experiment is classed as cell-based. The note with it: 72 h. The procedure, abridged: as §1
In experiment [5] the test system is BGC-823 (human gastric cancer cells). The experiment can be described thus: MTT cancer cell growth inhibition. Type of experiment: cell-based. The note with it: 72 h, read-out: GI50 BGC823. The essentials:
as §1

Experiment [6] has as its system MOLT-4 (human acute lymphoblastic leukemia cells). The experiment can be described thus: MTT cancer cell growth inhibition. The experiment is classed as cell-based. The note with it: 72 h. The essentials: as §1
The subject of experiment [7] is HT1080 (human fibrosarcoma cells). The experiment can be described thus: MTT cancer cell growth inhibition. The note with it: HT-1080, 72 h. The experiment is classed as cell-based. The essentials:
as §1

Experiment [8] relates to A549 (human lung cancer cells). Kind of experiment: MTT cancer cell growth inhibition. Type of experiment: cell-based. The note with it: 72 h. The essentials: as §1
In experiment [9] the test system is DU145 (human prostate cancer cells). Kind of experiment: MTT cancer cell growth inhibition. The note with it: DU-145, 72 h. Type of experiment: cell-based. The essentials:
as §1

Experiment [10] deals with HDAC1 (Homo sapiens, UniProt Q13547). Kind of experiment: Measurement of biochemical activities of HDAC (fluorescently-labeled acetylated lysine substrate). The note with it: read-out: IC50 HDAC1. The essentials: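 For both HDAC isoforms, fluorescent acetyl-lysine substrate ([…] in reaction) incubated with enzyme and compounds for 30 min at 37; developer then added for 15 min at room temperature. Fluorescence read at excitation 360 nm, emission 460 nm.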
HDAC1, sequence (Q13547 whole entry, species assumed, canonical isoform): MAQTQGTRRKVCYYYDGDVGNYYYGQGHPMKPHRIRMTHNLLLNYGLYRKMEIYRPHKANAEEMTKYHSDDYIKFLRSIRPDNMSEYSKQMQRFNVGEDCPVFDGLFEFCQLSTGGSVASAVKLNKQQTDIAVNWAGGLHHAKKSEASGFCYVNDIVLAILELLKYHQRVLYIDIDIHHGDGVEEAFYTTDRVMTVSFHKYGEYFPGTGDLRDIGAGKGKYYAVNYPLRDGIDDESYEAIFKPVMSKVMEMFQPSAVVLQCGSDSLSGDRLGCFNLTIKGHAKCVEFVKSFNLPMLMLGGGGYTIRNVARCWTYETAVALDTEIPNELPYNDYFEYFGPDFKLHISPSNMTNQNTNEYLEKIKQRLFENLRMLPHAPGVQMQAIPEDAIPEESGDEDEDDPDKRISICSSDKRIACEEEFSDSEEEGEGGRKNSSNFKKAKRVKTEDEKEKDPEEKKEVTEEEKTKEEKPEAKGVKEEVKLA

The subject of experiment [11] is Human Lung Caner Cell NCI-H1975. Kind of experiment: Subcutaneously transplanted tumors in nude mice. The experiment is classed as in vivo. The conditions noted are these: 20 mg/kg. As to the method:
(§2) Tumor tissues in the vigorous growth period are cut into about 1.5 mm^3, and inoculated to the right axilla subcutaneous layer of the nude mice under aseptic conditions. For the subcutaneously transplanted tumors of the nude mice, the diameter of the transplanted tumors is measured by a vernier caliper. The mice are randomly grouped after the tumors grow to 100-200 mm^3. […] The diameter of the transplanted tumors is measured twice per week in the whole experimental process, and meanwhile the weight of the mice is weighed. The calculation formula of tumor volume (TV) is TV=½×a×b^2, where a and b represent length and width, respectively.
(§3) The relative tumor volume (RTV) is calculated according to the measured results, with the following calculation formula: RTV=Vt/V0, where V0 is the tumor volume obtained by measurement during administration in different cages (i.e., d0), Vt is the tumor volume obtained by measurement at each time. […] (Wc−WT)Wc×100%, where Wc is the tumor weight of the control group, and WT is the tumor weight of the treatment group.

The test system of experiment [12] is Human Blood Acute Monocytic Leukemia U937. Kind of experiment: Subcutaneously transplanted tumors in nude mice. Type of experiment: in vivo. The conditions noted are these: 20 mg/kg. The protocol:
as §2, §3

Experiment [13] deals with Human Melanoma Cell A875. Kind of experiment: Subcutaneously transplanted tumors in nude mice. Type of experiment: in vivo. The note with it: 20 mg/kg. The protocol:
as §2, §3

For experiment [14], the system named is Human Gastric Adenocarcinoma Cell BGC-823. The experiment can be described thus: Subcutaneously transplanted tumors in nude mice. The experiment is classed as in vivo. The conditions noted are these: 20 mg/kg. The protocol:
as §2, §3

Experiment [15] has as its system Human Lymphoma Cell Ramos. The experiment can be described thus: Subcutaneously transplanted tumors in nude mice. The conditions noted are these: 20 mg/kg. Type of experiment: in vivo. As to the method:
as §2, §3

The values below come from patent publication US8933195B2, “Histone deacetylase inhibitors and synthetic method thereof and use thereof in manufacture of medicaments” (Nanjing Yoko Biomedical R & D Ltd., priority 2011, dated 2015).

Usually GI50 stands for the concentration at which growth is held to half of that of the control. For orientation: IC50 means the concentration needed to halve the response being measured. With `C/C=C1\NC(=O)c2csc(n2)CNC(=O)C[C@@H](/C=C/CCSC(=O)CCCCCCC)OC(=O)[C@H](C(C)C)NC1=O` [Compound 1-3], the GI50 in [1] was 500 nM; in experiment [2], 6000 nM; in experiment [3], 1200 nM; in experiment [4], 1000 nM; in [5], 60 nM; in [6] it was 1000 nM. Moreover, the 50% growth inhibitory concentration (GI50) in [7] amounted to 4000 nM; in experiment [8], 10000 nM; in experiment [9], 300 nM. Further, the IC50 in experiment [10] is below 10000 nM. Moreover, the “Tumor Inhibition Rate (1 − T/C) × 100%” value came to 56.40% in experiment [11]; 65.21% in experiment [12]; 63.89% in experiment [13]; 59.38% in experiment [14]; 70.08% in experiment [15].
In the case of `C/C=C1\NC(=O)c2csc(n2)CNC(=O)C[C@@H](/C=C/CCSC(=O)CCCCCCC)OC(=O)[C@H](C)NC1=O` [Compound 1-4], the GI50 in experiment [1] was 30 nM; in experiment [2], 1600 nM; in experiment [3], 200 nM; in [4], 1300 nM; in [5], 2500 nM; in [6], 100 nM. The GI50 in experiment [7] amounted to 800 nM; in [8], 2900 nM; in [9] it was 360 nM. The IC50 in experiment [10] was below 1000 nM.
For the compound `C/C=C1\NC(=O)c2csc(n2)CNC(=O)C[C@@H](/C=C/CCSC(=O)CCCCCCC)OC(=O)[C@H](C(C)(C)C)NC1=O` [Compound 1-6], the GI50 in experiment [1] was found to be 200 nM; in [2], 3000 nM; in [3] it was 600 nM; in [4], 1000 nM; in experiment [5], 400 nM; in experiment [6], 1000 nM. The GI50 in [7] came out at 1300 nM; in experiment [8] it was 500 nM; in experiment [9] it was 50 nM. In addition, in experiment [10], the IC50 is below 10000 nM. The “Tumor Inhibition Rate (1 − T/C) × 100%” value in [11] is given as 59.19%; in [12] it was 66.37%; in experiment [13], 66.64%; in experiment [14], 60.26%; in [15], 60.94%.
For `C/C=C1\NC(=O)c2csc(n2)CNC(=O)C[C@@H](/C=C/CCSC(=O)CCCCCCC)OC(=O)[C@H](Cc2ccccc2)NC1=O` [Compound 1-7], the concentration for 50% growth inhibition (GI50) came out at 20 nM in [1]; 1500 nM in experiment [2]; 700 nM in experiment [3]; 5000 nM in experiment [4]; 300 nM in experiment [5]; 100 nM in [6]. For the same compound, the GI50 in [7] came out at 300 nM; in experiment [8] it was 400 nM; in experiment [9], 20 nM. Further, the IC50 in experiment [10] was below 10000 nM.
In the case of `C/C=C1\NC(=O)c2csc(n2)CNC(=O)C[C@@H](/C=C/CCSC(=O)CCCCCCC)OC(=O)[C@H](Cc2ccc(O)cc2)NC1=O` [Compound 1-8], the GI50 in experiment [1] worked out at 20 nM; in [2] it was 100 nM; in experiment [3], 100 nM; in [4], 100 nM; in experiment [5], 300 nM; in [6], 20 nM. The GI50 was determined as 70 nM in [7], 100 nM in [8] and 30 nM in experiment [9]. In [10], the IC50 is below 102 nM. In addition, the “Tumor Inhibition Rate (1 − T/C) × 100%” value in experiment [11] was found to be 53.23%; in experiment [12], 68.32%; in [13], 68.07%; in experiment [14], 56.83%; in [15], 58.33%.
Take `O=C(CCCCCCC(=O)Nc1ccccc1)NO` [SAHA, suberoylanilide hydroxamic acid, reference compound]: the GI50 in experiment [1] was 2310 nM; in [2] it was 7460 nM; in experiment [3] it was 1800 nM; in [4], 37800 nM; in experiment [5], 4500 nM; in [7], 3800 nM. Further, halving of growth in experiment [8] (GI50) required 7700 nM.
